Results as given in US4774184A, “Culture and process for producing antibiotic LL-D42067alpha” (American Cyanamid Company, priority 1985, dated 1988).
≈ marks a conversion by molar mass, not a printed value. Like-named read-outs stand apart in the source and are kept apart here.

Legend:
Type in all cases: cell-based
yeasts = test: in vitro antimicrobial spectrum, summary in words; details: summary of Table VI
Experimental: (§1) The in vitro antimicrobial spectrum of LL-D42067α was determined by the agar plate dilution method with Mueller-Hinton agar and an inoculum of each test organism of approximately 10^4 colony forming units delivered by the Steers replicating device. The minimal inhibitory concentration (MIC) in mcg/ml was defined as the lowest concentration of LL-D42067α that inhibited visible growth after 18 hours incubation at 35° C.

gram-positive bacteria = test: in vitro antimicrobial spectrum, summary in words; details: summary of Table VI
Experimental: as §1

Streptococcus sanguis = test: in vitro antimicrobial spectrum, agar plate dilution MIC; details: strain G9B (a), Mueller-Hinton agar, 18 hours, 35° C., read-out: minimal inhibitory concentration (MIC)
Experimental: as §1

[1] = system: Acinetobacter calcoaceticus; test: as above; details: strain Stfd-79-17, Mueller-Hinton agar, 18 hours, 35° C., read-out: minimal inhibitory concentration (MIC)
Experimental: as §1

Klebsiella pneumoniae = test: as above; details: strain AD, Mueller-Hinton agar, 18 hours, 35° C., read-out: minimal inhibitory concentration (MIC)
Experimental: as §1

Streptococcus mutans = test: as above; details: 18 hours, 35° C., read-out: minimal inhibitory concentration (MIC)
Experimental: as §1

Proteus morganii = test: as above; details: Morganella morganii; strain K-79-25; Mueller-Hinton agar, 18 hours, 35° C.; read-out: minimal inhibitory concentration (MIC)
Experimental: as §1

[2] = system: Staphylococcus epidermidis; test: as above; details: 18 hours, 35° C., read-out: minimal inhibitory concentration (MIC)
Experimental: as §1

Saccharomyces cerevisiae = test: as above; details: strain Y 15, Mueller-Hinton agar, 18 hours, 35° C., read-out: minimal inhibitory concentration (MIC)
Experimental: as §1

Escherichia coli = test: as above; details: 18 hours, 35° C., read-out: minimal inhibitory concentration (MIC)
Experimental: as §1

Bacillus subtilis = test: as above; details: ATCC6633, strain ATCC 6633, Mueller-Hinton agar, 18 hours, 35° C., read-out: minimal inhibitory concentration (MIC)
Experimental: as §1

Streptococcus faecalis = test: as above; details: Enterococcus faecalis, ATCC29212; strain ATCC 29212; Mueller-Hinton agar, 18 hours, 35° C.; read-out: minimal inhibitory concentration (MIC)
Experimental: as §1

Bacillus cereus = test: as above; details: strain LL #4, Mueller-Hinton agar, 18 hours, 35° C., read-out: minimal inhibitory concentration (MIC)
Experimental: as §1

[3] = system: Streptococcus (enterococcus sp); test: as above; details: Mueller-Hinton agar, 18 hours, 35° C.
Experimental: as §1

Micrococcus luteus = test: as above; details: strain PC 1001, Mueller-Hinton agar, 18 hours, 35° C., read-out: minimal inhibitory concentration (MIC)
Experimental: as §1

Candida albicans = test: as above; details: strain CA 300, Mueller-Hinton agar, 18 hours, 35° C., read-out: minimal inhibitory concentration (MIC)
Experimental: as §1

Staphylococcus aureus = test: as above; details: Mueller-Hinton agar, 18 hours, 35° C.; for MIC: Staphylococcus aureus, read-out: minimal inhibitory concentration (MIC)
Experimental: as §1

COc1c2c(c(O)c3c(=O)c4c(oc13)C(O)CCC4O)-c1c3c(c4cc(C)n(C)c(=O)c4c1O)OCOC3C2 (stereo not drawn) [LL-D42067α]
antimicrobial activity against yeasts (yeasts): moderately active
antimicrobial activity versus gram-positive bacteria (gram-positive bacteria): active
MIC (Streptococcus sanguis): ≤ 0.06 µg/mL
MIC [1]: 512 µg/mL (≈ 956 µM)
MIC (Klebsiella pneumoniae): 512 µg/mL (≈ 956 µM)
MIC (Streptococcus mutans; ATCC27352, strain ATCC 27352, Mueller-Hinton agar): ≤ 0.06 µg/mL
MIC (Streptococcus mutans; strain BHI (b), Mueller-Hinton agar): ≤ 0.06 µg/mL
MIC (Proteus morganii): 512 µg/mL (≈ 956 µM)
MIC ([2]; ATCC12228, strain ATCC 12228, Mueller-Hinton agar): ≤ 0.06 µg/mL
MIC ([2]; strain CMC-83-56, Mueller-Hinton agar): ≤ 0.06 µg/mL
MIC (Saccharomyces cerevisiae): 32 µg/mL (≈ 59.8 µM)
MIC (Escherichia coli; ATCC25922, strain ATCC 25922, Mueller-Hinton agar): 512 µg/mL (≈ 956 µM)
MIC (Escherichia coli; strain #311, Mueller-Hinton agar): 512 µg/mL (≈ 956 µM)
MIC (Bacillus subtilis): ≤ 0.06 µg/mL
MIC (Streptococcus faecalis): ≤ 0.06 µg/mL
MIC (Bacillus cereus): ≤ 0.06 µg/mL
MIC ([3]; Streptococcus, strain OSU-75-1, read-out: minimal inhibitory concentration (MIC)): ≤ 0.06 µg/mL
minimal inhibitory concentration (MIC) ([3]; strain SM-77-15): ≤ 0.06 µg/mL
MIC (Micrococcus luteus): ≤ 0.06 µg/mL
MIC (Candida albicans): 256 µg/mL (≈ 478 µM)
MIC (Staphylococcus aureus; ATCC25923, strain ATCC 25923): ≤ 0.06 µg/mL
MIC (Staphylococcus aureus; strain Smith): ≤ 0.06 µg/mL
minimal inhibitory concentration (MIC) (Staphylococcus aureus; strain LL #14): ≤ 0.06 µg/mL
minimal inhibitory concentration (MIC) (Staphylococcus aureus; strain LL #27): ≤ 0.06 µg/mL
minimal inhibitory concentration (MIC) (Staphylococcus aureus; strain LL #45): ≤ 0.06 µg/mL
